The numbers were not newly measured in US20220133691A1, “LASOFOXIFENE TREATMENT OF VVA AND OSTEOPOROSIS IN SURVIVORS OF BREAST CANCER AND OTHER MALIGNANCIES” (Sermonix Pharmaceuticals, Inc., priority 2016, published 2022), which cites them from elsewhere.

This series relates to post-menopausal women with osteoporosis. Conditions: PEARL trial.

Turning to `Oc1ccc2c(c1)CC[C@H](c1ccccc1)[C@@H]2c1ccc(OCCN2CCCC2)cc1` [lasofoxifene], the risk of osteoporosis entry (Cummings et al., NEJM 2010) was “reduce the risk of osteoporosis”. Moreover, under “post-menopausal women with osteoporosis, LaCroix et al., JNCI 2010”, the “risk of breast cancer” value is reported as “reduced the risk of breast cancer”.
